Test results taken from US20130316963A1, “INNATE DEFENCE REGULATORY PEPTIDE COMPOSITIONS FOR TREATMENT OF ARTHRITIS” (UNIVERSITY OF MANITOBA, priority 2010, published 2013).

How the values were obtained:
Assay type in all cases: cell-based
human FLS cells [1] = experiment: MMP-3 production in tissue culture supernatants of cytokine-stimulated human FLS cells (ELISA); conditions: 24 hr
Protocol: Synovial tissues were obtained from patients with OA in accordance to a protocol by the Institutional Review Board at the University of Manitoba. FLS cells were isolated from the synovial tissues following the procedure taught by Kammouni et al. (2007, Regulation of apoptosis in fibroblast-like synoviocytes by the hypoxia-induced Bcl-2 family member Bcl-2/adenovirus E1B 19-kd protein-interacting protein 3. Arthritis Rheum. 56:2854-2863). Briefly, the tissues were digested with 1 mg/ml collagenase and 0.05 mg/ml hyaluronidase (both obtained from Sigma-Aldrich Co., Oakville, ON, Canada) in Hanks' balanced salt solution (Gibco; Invitrogen Canada Inc., Burlington, ON, Canada) for 1-2 hours at 37° C. Cells were washed and cultured in DMEM media (Gibco) supplemented with sodium pyruvate and non-essential amino acids (referred to as complete DMEM media henceforth), containing 10% (v/v) fetal bovine serum (FBS) in a humidified incubator at 37° C. and 10% CO2. Isolated human FLS cells (ex-vivo) were seeded at 2×10^4 cells/ml, either 0.5 ml per well in 48-well tissue culture plate, or 3 ml per well in 6-well tissue culture plate as required and cultured in complete DMEM media containing 10% (v/v) FBS overnight. The following day the culture media was changed to complete DMEM containing 1% (v/v) FBS before the addition of the various stimulants. The FLS cells were not used beyond passage five. […] Cellular cytotoxicity was evaluated by monitoring the release of lactate dehydrogenase (LDH) employing a colorimetric detection kit (Roche Diagnostics, Laval, QC, Canada).
Tissue culture supernatants were harvested after stimulation of human FLS cells with various cytokines (as indicated) with and without IDR peptides after 24 hr. […] Production of MMP-3 in the tissue culture supernatants was monitored using Quantikine® human MMP-3 (total) ELISA kit (Quantikine is a registered trademark of R&D Systems, Inc. Minneapolis, Minn., USA) as per the manufacturer's instructions. Production of pro-inflammatory cytokines IL-1β, IL-6, IL-10, TNF, IL-12p70 and chemokines IL-8, RANTES, MIG, MCP-1, IP-10 in the tissue culture supernatants was determined using preconfigured multiplex BD Cytometric Bead Array (CBA) human inflammation and chemokine kits respectively, employing the FACS Calibur flow cytometer (BD Biosciences, Mississauga, ON, Canada) as per the manufacture's instructions. The concentration of the cytokines or chemokines in the tissue culture supernatants was evaluated by establishing a standard curve with serial dilutions of the recombinant human cytokines or chemokines as required. […]

human FLS cells [2] = experiment: Cytokine and chemokine production in human FLS cell supernatants (BD Cytometric Bead Array)
Protocol: Tissue culture supernatants were harvested after stimulation of human FLS cells with various cytokines (as indicated) with and without IDR peptides after 24 hr. The supernatants were centrifuged at 1500×g for 7 min to obtain cell-free samples. The samples were aliquoted and stored at −20° C. until further use. Production of MMP-3 in the tissue culture supernatants was monitored using Quantikine® human MMP-3 (total) ELISA kit (Quantikine is a registered trademark of R&D Systems, Inc. Minneapolis, Minn., USA) as per the manufacturer's instructions. Production of pro-inflammatory cytokines IL-1β, IL-6, IL-10, TNF, IL-12p70 and chemokines IL-8, RANTES, MIG, MCP-1, IP-10 in the tissue culture supernatants was determined using preconfigured multiplex BD Cytometric Bead Array (CBA) human inflammation and chemokine kits respectively, employing the FACS Calibur flow cytometer (BD Biosciences, Mississauga, ON, Canada) as per the manufacture's instructions. The concentration of the cytokines or chemokines in the tissue culture supernatants was evaluated by establishing a standard curve with serial dilutions of the recombinant human cytokines or chemokines as required.
To evaluate whether IDR-1002 alone could induce inflammatory responses, human FLS cells were stimulated with IDR-1002 (100 μg/ml) for 24 hr. BD Cytometric Bead Array (CBA) preconfigured human inflammation (IL-8, IL-1β, IL-6, IL-10, TNF, IL-12p70) kit was used to evaluate protein secretion of the various analytes in the tissue culture supernatants employing FACS Calibur flow cytometer.
IL-1β-induced protein profiles (proteome) in the presence and absence of IDR-1002 were evaluated using quantitative proteomics iTRAQ® tools employing different isobaric tags. Human FLS cells were treated with IDR-1002 (100 μg/ml) for 45 min prior to IL-1β (10 ng/ml) stimulation for 24 hr. Tissue culture supernatants were monitored for protein production of MMP-3 and chemokines IL-8 and MCP-1 production, in order to evaluate the validity of the assay before processing the cell lysates for quantitative proteomic evaluation. MMP-3 production was monitored in the tissue culture supernatants by ELISA, and chemokines IL-8 and MCP-1 production were evaluated by BD preconfigured human chemokine Cytometric Bead Array.

human FLS cells [3] = experiment: IL-IRA production in human FLS cells stimulated with IL-1β (ELISA); conditions: 48 hr, FIG. 5
Protocol: Tissue culture supernatants were harvested from human FLS cells after stimulation for 48 hr with IL-1β with and without IDR-1002. The supernatants were centrifuged at 1500×g for 7 min to obtain cell-free samples. The samples were aliquoted and stored at −20° C. until further use. Production of IL-IRA in the tissue culture supernatants was monitored using Quantikine® human […] ELISA following the manufacturer's instructions. […] Results shown are an average of at least three independent biological experiments performed with cells isolated from synovial tissues obtained from independent donors±standard error (*p<0.05, **p<0.01).

For VQRWLIVWRIRK (IDR-1002 peptide), the “suppression of IL-1β-induced MMP-3” value (human FLS cells [1]; IDR-1002 100 μg/ml for 45 min prior to IL-1β 10 ng/ml, FIG. 2A) was 80%, the “suppression of IL-1β-induced MMP-3 production” value (human FLS cells [1]; IL-1β 10 ng/ml, peptide added at time of stimulation, IDR-1002 100 μg/ml, IDR-1 200 μg/ml, FIG. 1A) was 70±8% and the “suppression of MMP-3 production induced by cytomix (TNF-α+IL-1β)” value (human FLS cells [1]; TNF-α+IL-1β 10 ng/ml each, IDR-1002 100 μg/ml, FIG. 1C) was 56±10%. The “MMP-3 production induced by peptide by itself” value (human FLS cells [1]; no cytokine, vs un-stimulated control FLS cells, IDR-1002 100 μg/ml) was “did not induce MMP-3 production above the background amount”, the “IL-10 and IL-12p70 in supernatants by flow cytometry” value (human FLS cells [2]; IDR-1002 100 μg/ml alone, 24 hr) was “could not be detected” and the “suppression of IL-1β-induced chemokine MCP-1 production” value (human FLS cells [2]; IDR-1002 100 μg/ml for 45 min prior to IL-1β 10 ng/ml, 24 hr, FIG. 2B) was over 60%. The “suppression of IL-1β-induced chemokine IL-8 production” value (human FLS cells [2]; IDR-1002 100 μg/ml for 45 min prior to IL-1β 10 ng/ml, 24 hr, FIG. 2C) was 20%, the “release of pro-inflammatory cytokines TNF-α, IL-1β or IL6 by peptide alone” value (human FLS cells [2]; IDR-1002 100 μg/ml, 24 hr, vs un-stimulated control cells, data not shown) was “did not induce” and the “chemokine production induced by peptide by itself in FLS” value (human FLS cells [2]; IDR-1002 alone, human FLS) was “did not induce chemokine production by itself”. For the same sequence, the “IL-IRA production with IL-1β in the presence of IDR-1002, relative to IL-1β in the presence of IDR-1” value (human FLS cells [3]) was “more than twice as much IL-IRA”, the “IL-IRA production with IL-1β in the presence of IDR-1002, relative to IL-1β alone” value (human FLS cells [3]; IL-1β alone about 150 pg/ml) was “more than twice as much IL-IRA” and the “IL-IRA production by IDR-1002 alone” value (human FLS cells [3]; no IL-1β) was “did not stimulate production of IL-IRA”.
